“Also recorded” adds a separate entry of the source. Read-outs that look alike come from different tables or passages of the source.
Experiments:
LUHMES and dLUHMES cells [1] = test system: LUHMES and dLUHMES cells
SH-SY5Y = conditions: cited from earlier work
[2] = test system: HEK293, SH-SY5Y, SK-N-SH, or N2a; conditions: cited from earlier work
NSC and dNSC cells = conditions: 24 h exposure, [ATP], 0.78 to 100 µM
[3] = test system: Caspase 3/7 activity in LUHMES and dLUHMES cells; assay: Caspase-Glo 3/7 luminescence assay, 24 h; type: cell-based, human; conditions: dLUHMES, 24 h, threshold […] above control
[4] = test system: Caspase 3/7 activity in SH-SY5Y and dSH-SY5Y cells; assay: Caspase-Glo 3/7 luminescence assay, 24 h; type: cell-based
[5] = test system: SH-SY5Y and dSH-SY5Y cells
[6] = test system: SH-SY5Y and dSH-SY5Y cells; assay: qPCR of apoptosis-pathway genes after 6 h toxicant treatment; type: cell-based, human; conditions: for BAG3 expression: both SH-SY5Y and dSH-SY5Y
[7] = test system: Caspase 3/7 activity in NSC and dNSC cells; type: cell-based, human; conditions: 24 h, threshold […] above control
LUHMES and dLUHMES cells [8] = conditions: 6 h
[9] = test system: SH-SY5Y, LUHMES, NSC, dSH-SY5Y, dLUHMES, dNSC
[10] = 24 h exposure, 0.78 to 100 µM, vs SH-SY5Y/dSH-SY5Y and NSC/dNSC
[11] = SH-SY5Y and dSH-SY5Y (either cell type), MAP 12.5 µM, DTCM 10 µM, MALG 1.56 µM, MHG 1.56 µM, RSR 10 µM
[12] = MAP 12.5 µM, DTCM 10 µM, MALG 1.56 µM, MHG 1.56 µM, RSR 10 µM
[13] = 24 h exposure, [ATP], 0.78 to 100 µM
[14] = SH-SY5Y and dSH-SY5Y (either cell type), MAP 12.5 µM, MALG 1.56 µM, MHG 1.56 µM, RSR 10 µM

## O=c1c(O)c(-c2ccc(O)c(O)c2)oc2cc(O)cc(O)c12 [QRC, Quercetin]
LUHMES and dLUHMES cells [1]
  cytotoxic sensitivity ([ATP] IC50) of LUHMES and/or dLUHMES relative to the other cell lines: more sensitive than the other cell lines
SH-SY5Y
  In vitro neural selectivity (effect reported in SH-SY5Y): Toxic or protective in SH- SY5Y ([Ossola et al., 2008])

## CCCCCCCCn1sccc1=O [OTZ, 2-octyl-4-isothiazolin-3-one]
LUHMES and dLUHMES cells [1]
  cytotoxic sensitivity ([ATP] IC50) of LUHMES and/or dLUHMES relative to the other cell lines: more sensitive than the other cell lines
[2]
  In vitro neural selectivity: neural-derived cell lines 10-fold more sensitive (10-fold lower IC50) than the median of the other 9 cell lines: SH-SY5Y ([Huang et al., 2008], [Xia et al., 2008])
NSC and dNSC cells
  relative cytotoxic sensitivity of NSC versus dNSC: NSC more sensitive than dNSC

## Nc1ccn([C@@H]2O[C@H](CO)[C@@H](O)[C@@H]2O)c(=O)n1 [ARAC, Cytosine arabinoside]
LUHMES and dLUHMES cells [1]
  relative cytotoxic sensitivity of LUHMES versus dLUHMES cells: LUHMES cells were more sensitive than dLUHMES cells
LUHMES and dLUHMES cells [1]; [10]
  cytotoxic sensitivity ([ATP] IC50) of LUHMES and/or dLUHMES relative to the other cell lines: more sensitive than the other cell lines
[3]
  increase of Caspase 3/7 activity in dLUHMES: but not dLUHMES
[4]
  peak Caspase 3/7 activities, ranking among compounds: highest activities

## C=C(C)[C@H]1Cc2c(ccc3c2O[C@@H]2COc4cc(OC)c(OC)cc4[C@@H]2C3=O)O1 [ROTE, Rotenone]
LUHMES and dLUHMES cells [1]
  relative cytotoxic sensitivity of LUHMES versus dLUHMES cells: LUHMES cells were more sensitive than dLUHMES cells
LUHMES and dLUHMES cells [1]; [10]
  cytotoxic sensitivity ([ATP] IC50) of LUHMES and/or dLUHMES relative to the other cell lines: more sensitive than the other cell lines
[5]
  cytotoxic sensitivity of dSH-SY5Y cells relative to SH-SY5Y cells: more sensitive

## N#CSCSC#N [DTCM, Dithiocyanatomethan]
[6]; [11]
  BIRC5 gene expression: down-regulation
[6]; SH-SY5Y, DTCM 10 µM
  BIRC3 gene expression: down-regulation
[6]; SHSY5Y, DTCM 10 µM
  FAS mRNA: down-regulated
[6]; [12]
  BAG3 expression: increased expression
[6]; dSH-SY5Y, DTCM 10 µM
  BIRC3 gene expression: did not respond detectably
  FASL mRNA: unchanged
LUHMES and dLUHMES cells [1]; [10]
  cytotoxic sensitivity ([ATP] IC50) of LUHMES and/or dLUHMES relative to the other cell lines: more sensitive than the other cell lines
LUHMES and dLUHMES cells [1]; [13]
  relative cytotoxic sensitivity of LUHMES versus dLUHMES cells: dLUHMES cells were markedly more sensitive than LUHMES cells
[2]
  In vitro neural selectivity: neural-derived cell lines 10-fold more sensitive (10-fold lower IC50) than the median of the other 9 cell lines: SH-SY5Y ([Huang et al., 2008], [Xia et al., 2008])
[3]
  increase of Caspase 3/7 activity in dLUHMES: but not dLUHMES
[5]; [13]
  cytotoxic sensitivity of dSH-SY5Y cells relative to SH-SY5Y cells: slightly more sensitive

## O=C(O)CCCc1ccc(N(CCCl)CCCl)cc1 [CLM, Chlorambucil]
LUHMES and dLUHMES cells [1]
  relative cytotoxic sensitivity of LUHMES versus dLUHMES cells: LUHMES cells were more sensitive than dLUHMES cells
LUHMES and dLUHMES cells [1]; [10]
  cytotoxic sensitivity ([ATP] IC50) of LUHMES and/or dLUHMES relative to the other cell lines: more sensitive than the other cell lines
[2]
  In vitro neural selectivity: neural-derived cell lines 10-fold more sensitive (10-fold lower IC50) than the median of the other 9 cell lines: selective toxicity to SH-SY5Y cells; also recorded: SH-SY5Y, ([Huang et al., 2008], [Xia et al., 2008])
[3]
  increase of Caspase 3/7 activity in dLUHMES: but not dLUHMES
[4]
  peak Caspase 3/7 activities, ranking among compounds: highest activities

## NCCc1cc(O)c(O)cc1O [6HD, 6-hydroxydopamine]
[7]
  increase of Caspase 3/7 activity in dNSC: but not dNSC
LUHMES and dLUHMES cells [1]; [10]
  cytotoxic sensitivity ([ATP] IC50) of LUHMES and/or dLUHMES relative to the other cell lines: more sensitive than the other cell lines
LUHMES and dLUHMES cells [1]; [13]
  relative cytotoxic sensitivity of LUHMES versus dLUHMES cells: dLUHMES cells were markedly more sensitive than LUHMES cells
NSC and dNSC cells
  relative cytotoxic sensitivity of NSC versus dNSC: NSC more sensitive than dNSC
LUHMES and dLUHMES cells [8]; LUHMES, 6HD 1 µM
  expression of a series of apoptosis-related genes: not observed
LUHMES and dLUHMES cells [8]; dLUHMES, 6HD 1 µM
  expression of BCL2A1 and IL10: increased expression
  expression of a series of apoptosis-related genes: increased expression
[4]
  peak Caspase 3/7 activities, ranking among compounds: highest activities

## O=C1C2CC=CCC2C(=O)N1SC(Cl)(Cl)Cl (centres unmarked) [CAP, Captan]
LUHMES and dLUHMES cells [1]; [10]
  cytotoxic sensitivity ([ATP] IC50) of LUHMES and/or dLUHMES relative to the other cell lines: more sensitive than the other cell lines
LUHMES and dLUHMES cells [1]; [13]
  relative cytotoxic sensitivity of LUHMES versus dLUHMES cells: dLUHMES cells were markedly more sensitive than LUHMES cells
[2]
  In vitro neural selectivity: neural-derived cell lines 10-fold more sensitive (10-fold lower IC50) than the median of the other 9 cell lines: SH-SY5Y ([Huang et al., 2008], [Xia et al., 2008])
[5]; [13]
  cytotoxic sensitivity of dSH-SY5Y cells relative to SH-SY5Y cells: slightly more sensitive

## c1cc(OCC2CO2)cc(OCC2CO2)c1 (centres unmarked) [RSR, Resorcinol diglycidyl ether]
[6]; [11]
  BIRC5 gene expression: did not respond detectably
[6]; [14]
  BIRC3 gene expression: did not respond detectably
[6]; [12]
  BAG3 expression: weakly
LUHMES and dLUHMES cells [1]; [10]
  cytotoxic sensitivity ([ATP] IC50) of LUHMES and/or dLUHMES relative to the other cell lines: more sensitive than the other cell lines
[2]
  In vitro neural selectivity: neural-derived cell lines 10-fold more sensitive (10-fold lower IC50) than the median of the other 9 cell lines: SH-SY5Y ([Huang et al., 2008], [Xia et al., 2008])
NSC and dNSC cells
  relative cytotoxic sensitivity of NSC versus dNSC: the converse was true
LUHMES and dLUHMES cells [8]; LUHMES, 1.56 µM RSR, samples lost
  cytotoxicity seen in samples treated for qPCR: excessive cytotoxicity
[4]
  peak Caspase 3/7 activities, ranking among compounds: highest activities

## CN(C)c1ccc(C(=C2C=CC(=[N+](C)C)C=C2)c2ccccc2)cc1.CN(C)c1ccc(C(=C2C=CC(=[N+](C)C)C=C2)c2ccccc2)cc1.O=C(O)C(=O)O.O=C([O-])C(=O)O.O=C([O-])C(=O)O [MALG, Malachite green oxalate]
[9]
  cytotoxic sensitivity of LUHMES, dLUHMES, NSC and dNSC compared with each other: comparable sensitivity
[6]; [11]
  BIRC5 gene expression: down-regulation
[6]; [14]
  BIRC3 gene expression: down-regulation
[6]; [12]
  BAG3 expression: increased expression
[4]
  peak Caspase 3/7 activities, ranking among compounds: highest activities

Source: paper PMC5094908 (Journal of applied toxicology : JAT, 2016)
